# Test results taken from patent US8445509B2, “Fused heterocyclic derivatives and use thereof” (Takeda Pharmaceutical Company Limited, priority 2008, dated 2013).
# pIC50: −log10 of the molar value.
# Key:
# [1] = system: Human gastric cancer cell line MKN-45; test: Human gastric cancer cell line MKN-45 growth inhibitory test; type: cell-based; details: MKN-45, 72 h, culture for 3 days
# Method: Human gastric cancer cell line MKN-45 (RIKEN BioResource Center) was cultured in RPMI1640 (Invitrogen) containing 10% bovine fetal serum in a gas incubator at 37° C., 5% CO2. MKN-45 cells were treated with trypsin/EDTA and recovered. The cells were suspended in RPMI1640 containing 0.3% bovine fetal serum, plated on a 96 well flat bottom plate at a cells density of 3000 cells/50 μL per well. After culturing overnight, various concentrations of test substance were dissolved in RPMI1640 containing 0.3% bovine fetal serum and added to each well by 50 μL. After culture for 3 days, a Cell counting kit-8 reagent (DOJINDO LABORATORIES) was added to each well by 10 μL, and reacted in an incubator at 37° C., 5% CO2 for 2-3 hr. After the reaction, the absorbance of each well at 450 nm was measured by a microtiter plate reader. The concentration of a test substance necessary for inhibiting the growth by 50% (IC50 value) was calculated using a cell proliferation rate with addition of the test substance at each concentration and according to the nonlinear regression analysis using GraphPad Prism [Sigmoidal dose response (variable slope)]. The cell proliferation rate (%) with addition of a test substance at each concentration was calculated by the following formula. As a positive control (100% growth), dimethyl sulfoxide was added instead of a test substance. As a negative control (0% growth), the compound of Reference Example 136 (WO2005/030140, Entry 104), which is a known c-Met inhibitor, was added in large excess (10 μM) instead of a test substance.
# [2] = target: T1, c-Met intracellular domain protein (Homo sapiens, UniProt P08581); test: Hepatocyte growth factor receptor (c-Met) kinase inhibitory activity (AlphaScreen); type: biochemical
# T1 construct: 2.5 ng/ml of c-Met intracellular domain protein (Millipore); purchased Millipore
# Method: (§1) A test compound dissolved in dimethyl sulfoxide (DMSO) was diluted with a buffer (50 mM Tris-HCl (pH 7.5), 5 mM MgCl2, 5 mM MnCl2, 2 mM dithiothreitol, 0.01% Tween-20). To this compound solution (5 μL) was added a buffer (10 μL) containing 2.5 ng/ml of c-Met intracellular domain protein (Millipore) and 250 ng/mL of biotin labeled polypeptide biotinyl-poly-Glu:Tyr (4:1) (CIS bio International). […] The reaction solution was allowed to stand at 25° C. for 16 hrs, and the wells were counted using a plate reader (Fusion™ (PerkinElmer)). The kinase inhibitory rate (%) of the test compound was calculated by the following formula: Inhibitory rate (%)=(1−(count of test compound−blank)÷(control−blank))×100
# (§2) The count of the solution reacted without addition of the compound was used as a “control”, and the count of the solution without the compound and ATP was used as a “blank”.
# [3] = target: T2, VEGFR2 intracellular domain protein (Homo sapiens, UniProt P35968); test: Vascular endothelial growth factor receptor 2 (VEGFR2) kinase inhibitory activity (AlphaScreen); type: biochemical
# T2 construct: made in house; host or cells: SF-21 insect cells, recombinant baculovirus BAC-VEGFR2
# Method: Human vascular endothelial growth factor receptor 2 (hereinafter to be referred to as VEGFR2) gene was cloned by PCR using cDNA Libraries Human Placenta (Clontech) as a template. […] The primer base sequence is shown below.
# SF-21 cells were sown at 1×10^6 cells/mL to Sf-900II SFM medium (1 L, Invitrogen) containing 10% fetal bovine serum (trace), 50 mg/L Gentamicin (Invitrogen) and 0.1% Pluronic F-68 (Invitrogen), and shaking culture was performed using a 2 L volume Erlenmeyer flask at 27° C., 100 rpm. After culturing for 24 hrs, recombinant baculovirus BAC-VEGFR2 (13.4 mL) was added to the mixture, and the mixture was further cultured for 3 days. The culture medium was centrifuged at 2,000 rpm for 5 min to give virus-infected cells. The infected cells were washed with a phosphate buffered saline (Invitrogen), centrifuged under the same conditions, and the cells were preserved at −80° C. The cryopreserved cells were thawed in ice, suspended in buffer A (50 mM Tris buffer (30 mL, pH 7.4) containing 20% glycerol, 0.15 M NaCl) supplemented with Complete Protease Inhibitor (Boehringer), and ruptured 3 times with a Polytron homogenizer (Kinematica) at 20,000 rpm for 30 sec. The ruptured medium was clarified by centrifugation at 40,000 rpm for 30 min and filtered with a 0.45 μm filter. The filtrate was passed through a column packed with Anti-FLAG M2 Affinity Gel (4 mL, Sigma) at a flow rate of about 0.5 mL/min. The column was washed with buffer A, and eluted with buffer A containing 100 μg/mL of FLAG peptide. The eluate was concentrated with Vivaspin 20 (Vivascience) having a molecular weight cut off of 30K. The buffer of this concentrate was exchanged using NAP™ 25 column (Amersham Bioscience) equilibrated with buffer A. The fractions containing intracellular domain protein of VEGFR2 were collected, glycerol was added to the final concentration of 50% and cryopreserved at −80° C.
# as §1, with “50 ng/mL” for “2.5 ng/ml”, “VEGFR2” for “c-Met”, “protein” for “protein (Millipore)”
# as §2
# [4] = system: Human blood cell cancer cell line MV-4-11; test: Human blood cell cancer cell line MV-4-11 growth inhibitory test; type: cell-based; details: MV4-11, 72 h, culture for 3 days
# Method: Human blood cell cancer cell line MV-4-11 (ATCC) was cultured in IMDM (Invitrogen) containing 10% bovine fetal serum in an incubator at 37° C., 5% CO2. MV-4-11 cells were treated with trypsin/EDTA and recovered. The cells were suspended in IMDM containing 10% bovine fetal serum, plated on a 96 well flat bottom plate at a cells density of 30,000 cells/50 μL per well. After culturing overnight, various concentrations of test substance were dissolved in IMDM containing 10% bovine fetal serum and added to each well by 50 μL. After culture for 3 days, a Cell counting kit-8 reagent (DOJINDO LABORATORIES) was added to each well by 10 μL, and reacted in an incubator at 37° C., 5% CO2 for 2-3 hr. After the reaction, the absorbance of each well at 450 nm was measured by a microtiter plate reader. The concentration of a test substance necessary for inhibiting the growth by 50% (IC50 value) was calculated using a cell proliferation rate with addition of the test substance at each concentration and according to the nonlinear regression analysis using GraphPad Prism [Sigmoidal dose response (variable slope)].
# [5] = system: Human umbilical vein-derived vascular endothelial cells (HUVEC); test: Vascular endothelial cell proliferation inhibitory test (VEGF-stimulated HUVEC); type: cell-based; details: 120 h, 5 days of culture with VEGF
# Method: Human umbilical vein-derived vascular endothelial cells (HUVEC purchased from KURABO […] LTD.) were cultured in an incubator at 37° C., 5% carbon dioxide in a vascular endothelial cell medium (Invitrogen) containing 3% bovine fetal serum and 2.5 ng/mL basic fibroblast growth factor. To be specific, HUVEC was suspended in a vascular endothelial cell medium containing the aforementioned 3% bovine fetal serum and plated on a 96 well flat bottom plate by 50 μL (3000 cells) each well. After culture overnight, various concentrations of the test substance and 120 ng/mL of vascular endothelial growth factor (VEGF) were dissolved in a vascular endothelial cell medium containing 3% bovine fetal serum and added to each well by 50 μL. After 5 days of culture, a Cell counting kit-8 reagent (DOJINDO LABORATORIES) was added to each well by 10 μL, and the mixture was reacted in an incubator at 37° C., 5% carbon dioxide for 2-3 hr. The absorbance at 450 nm was measured by a microtiter plate reader and the cell proliferation inhibitory activity was determined. Using the absorbance with addition of a test substance at each concentration and based on the nonlinear least-squares analysis using a logistic curve of SAS system NLIN procedure, the concentration of the test substance (IC50 value) necessary for showing 50% of the value obtained without addition of the test substance was calculated.
# [6] = target: T3, Tie2 intracellular domain protein (Homo sapiens, UniProt Q02763); test: TIE2 kinase inhibitory activity (AlphaScreen); type: biochemical
# T3 construct: 50 ng/mL of Tie2 intracellular domain protein (Millipore); purchased Millipore
# Method: A test compound dissolved in dimethyl sulfoxide (DMSO) was diluted with a buffer (50 mM Tris-HCl (pH 7.5), 5 mM MgCl2, 5 mM MnCl2, 2 mM dithiothreitol, 0.01% Tween-20). A buffer (10 μL) containing 50 ng/mL of Tie2 intracellular domain protein (Millipore) and 250 ng/ml, of biotin labeled polypeptide biotinyl-poly-Glu:Tyr (4:1) (CIS bio International) was added to the compound solution (5 μL). At 5 min from the mixing of the kinase enzyme, the compound and the biotin labeled polypeptide, a buffer (10 μL) containing 5 μM ATP was added, and the mixture was reacted at 25° C. for 10 min. The reaction was quenched by the addition of 25 μL of a stop solution (100 mM EDTA disodium salt, 62.5 mM HEPES buffer (pH 7.4), 250 mM NaCl, 0.1% bovine serum albumin, 10 μg/ml AlphaScreen assay streptavidin donor beads (Streptavidin Donor beads: PerkinElmer), 10 μg/ml, AlphaScreen assay anti-phosphotyrosine recognition antibody PT-66 binding acceptor beads (Anti-phosphotyrosine (PT-66) Acceptor beads: PerkinElmer)). The reaction solution was allowed to stand at 25° C. for 16 hrs, and the […] were counted using a plate reader (Fusion™ (PerkinElmer)). The kinase inhibitory rate (%) of the test compound was calculated by the following formula: Inhibitory rate (%)=(1−(count of test compound−blank)÷(control−blank))×100
# as §2
# [7] = target: T4, FLT3 intracellular domain protein (Homo sapiens, UniProt P36888); test: Fms Like Tyrosine Kinase 3 (FLT3) kinase inhibitory activity (AlphaScreen); type: biochemical
# T4 construct: 7.5 ng/ml of FLT3 intracellular domain protein (Millipore); purchased Millipore
# T4 sequence (P36888 564-993 limits assumed): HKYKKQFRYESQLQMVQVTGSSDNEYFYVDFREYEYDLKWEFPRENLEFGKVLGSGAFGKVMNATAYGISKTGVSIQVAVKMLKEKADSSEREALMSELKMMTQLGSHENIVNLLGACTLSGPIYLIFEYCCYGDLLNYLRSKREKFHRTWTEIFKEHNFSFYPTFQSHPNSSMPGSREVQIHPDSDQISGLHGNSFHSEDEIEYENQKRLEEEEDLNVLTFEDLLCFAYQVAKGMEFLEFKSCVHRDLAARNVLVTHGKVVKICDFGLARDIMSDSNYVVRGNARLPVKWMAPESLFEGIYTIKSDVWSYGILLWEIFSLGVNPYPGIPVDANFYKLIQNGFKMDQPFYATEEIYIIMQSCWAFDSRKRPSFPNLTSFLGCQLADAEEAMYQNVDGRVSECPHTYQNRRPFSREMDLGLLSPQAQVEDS
# Method: A test compound dissolved in dimethyl sulfoxide (DMSO) was diluted with a buffer (50 mM Tris-HCl (pH 7.5), 5 mM MgCl2, 5 mM MnCl2, 2 mM dithiothreitol, 0.01% Tween-20). To this compound solution (5 μL) was added a buffer (10 μL) containing 7.5 ng/ml of FLT3 intracellular domain protein (Millipore) and 250 ng/mL of biotin labeled polypeptide biotinyl-poly-Glu:Tyr (4:1) (CIS bio International). At 5 min after mixing kinase enzyme and the compound and biotin labeled polypeptide, to the obtained mixture was added a buffer (10 μL) containing ATP (5 μM), the mixture was allowed to react at 25° C. for 10 min and the reaction was quenched with 25 μL of a stop solution (100 mM EDTA disodium salt, 62.5 mM HEPES buffer (pH 7.4), 250 mM NaCl, 0.1% bovine serum albumin, 10 μg/mL AlphaScreen assay streptavidin donor beads (Streptavidin Donor Beads: PerkinElmer), 10 μg/mL AlphaScreen assay anti-phosphotyrosine recognition antibody Y-100 binding acceptor beads (Anti-phosphotyrosine (P-Tyr-100) Acceptor beads: PerkinElmer)). The reaction solution was allowed to stand at 25° C. for 16 hrs, and the wells were counted using a plate reader (Envision™ (PerkinElmer)). The kinase inhibitory rate (%) of the test compound was calculated by the following formula: Inhibitory rate (%)=(1−(count of test compound−blank)÷(control−blank))×100
# as §2
# [8] = 1 μM test substance, read-out: inhibitory rate (%) at 1 μM
# [9] = 1 μM test compound, read-out: inhibitory rate (%) at 1 μM
# T1 sequence (P08581 956-1390 limits assumed): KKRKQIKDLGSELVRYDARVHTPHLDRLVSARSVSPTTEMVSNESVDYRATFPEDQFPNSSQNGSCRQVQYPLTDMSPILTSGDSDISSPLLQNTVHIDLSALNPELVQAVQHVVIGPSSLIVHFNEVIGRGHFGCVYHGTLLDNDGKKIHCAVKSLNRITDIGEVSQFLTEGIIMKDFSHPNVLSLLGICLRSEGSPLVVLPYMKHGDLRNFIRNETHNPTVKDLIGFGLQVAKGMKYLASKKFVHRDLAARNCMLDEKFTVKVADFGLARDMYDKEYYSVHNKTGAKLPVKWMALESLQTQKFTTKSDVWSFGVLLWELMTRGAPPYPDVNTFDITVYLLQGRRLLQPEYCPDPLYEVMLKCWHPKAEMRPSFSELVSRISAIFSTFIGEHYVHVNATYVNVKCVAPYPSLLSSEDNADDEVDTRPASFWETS
# T2 sequence (P35968 786-1356 limits assumed): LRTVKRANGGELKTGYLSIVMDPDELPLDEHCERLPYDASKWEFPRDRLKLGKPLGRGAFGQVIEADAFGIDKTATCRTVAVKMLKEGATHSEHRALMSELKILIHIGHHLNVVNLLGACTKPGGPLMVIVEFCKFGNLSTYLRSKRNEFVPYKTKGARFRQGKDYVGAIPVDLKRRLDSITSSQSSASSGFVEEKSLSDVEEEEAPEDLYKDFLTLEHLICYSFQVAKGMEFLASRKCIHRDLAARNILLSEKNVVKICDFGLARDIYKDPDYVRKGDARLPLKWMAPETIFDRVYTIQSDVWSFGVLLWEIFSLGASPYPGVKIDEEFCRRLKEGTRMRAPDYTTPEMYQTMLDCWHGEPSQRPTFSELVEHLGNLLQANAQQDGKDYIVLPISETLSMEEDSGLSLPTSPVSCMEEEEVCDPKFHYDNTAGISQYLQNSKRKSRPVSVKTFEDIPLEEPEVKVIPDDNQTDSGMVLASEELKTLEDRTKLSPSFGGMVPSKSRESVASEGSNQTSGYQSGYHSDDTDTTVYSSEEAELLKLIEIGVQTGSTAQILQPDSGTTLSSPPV
# T3 sequence (Q02763 770-1124 limits assumed): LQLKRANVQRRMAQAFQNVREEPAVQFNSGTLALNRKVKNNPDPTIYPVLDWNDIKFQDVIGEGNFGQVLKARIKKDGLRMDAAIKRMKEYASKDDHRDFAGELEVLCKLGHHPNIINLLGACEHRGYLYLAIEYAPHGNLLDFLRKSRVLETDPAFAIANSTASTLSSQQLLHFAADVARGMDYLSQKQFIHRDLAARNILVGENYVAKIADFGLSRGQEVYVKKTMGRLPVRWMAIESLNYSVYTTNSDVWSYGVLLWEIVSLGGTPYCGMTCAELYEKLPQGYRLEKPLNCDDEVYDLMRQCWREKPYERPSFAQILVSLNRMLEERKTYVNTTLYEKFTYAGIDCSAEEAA
pIC50 ([1]; read-out: IC50 value),pIC50 [2],"inhibition at 1 µM [2, 9] [%]",pIC50 [3],"inhibition at 1 µM [3, 9] [%]",pIC50 [4],pIC50 [6],pIC50 [7],Compound,"inhibition at 1 µM [1, 8] [%]","inhibition at 1 µM [4, 8] [%]","inhibition at 1 µM [5, 8] [%]",pIC50 [5]
≥ 6.00,≥ 6.00,≥ 80,≥ 6.00,≥ 70,≥ 6.00,–,–,"O=C(Nc1nc2ccc(Oc3ccc(NC(=O)C4(C(=O)Nc5ccccc5)CC4)cc3F)nc2s1)C1CC1 [Example 20, N-[4-({2-[(cyclopropylcarbonyl)amino][1,3]thiazolo[5,4-b]pyridin-5-yl}oxy)-3-fluorophenyl]-N′-phenylcyclopropane-1,1-dicarboxamide]",≥ 80,≥ 90,≥ 40,≥ 5.70
–,–,–,–,–,–,≥ 6.00,≥ 6.00,"Cc1ccc(C(=O)Nc2ccc(Oc3ccc4nc(NC(=O)C5CC5)cn4c3)c(F)c2)c(=O)n1-c1ccc(F)cc1 [Example 90, N-[4-({2-[(cyclopropylcarbonyl)amino]imidazo[1,2-a]pyridin-6-yl}oxy)-3-fluorophenyl]-1-(4-fluorophenyl)-6-methyl-2-oxo-1,2-dihydropyridine-3-carboxamide acetate]",–,–,–,–
